Experimental data: ChEMBL document CHEMBL1201862, “PubChem BioAssay data set” (2004)
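A five-concentration, 48-hour dose response in 96-well plates underlies each endpoint, interpolated linearly between surrounding concentrations. GI50 is the concentration that inhibits growth by half.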 The source made the active and inactive calls. No stated cut-off is given here; in the data, active = GI50 up to about 1.1 µM and inactive = higher.

Columns and labels:
Experiment in all cases: NCI tumour cell line growth inhibition, 48 h
A498 = test system: A498
A549 = test system: A549
ACHN = test system: ACHN
CAKI-1 = test system: CAKI-1
CCRF-CEM = test system: CCRF-CEM
EKVX = test system: EKVX
HCC 2998 = test system: HCC 2998
HCT-116 = test system: HCT-116
HL-60 = test system: HL-60
HOP-62 = test system: HOP-62
K562 = test system: K562
MDA-MB-231 = test system: MDA-MB-231
MDA-MB-435 = test system: MDA-MB-435
Malme-3M = test system: Malme-3M
NCI-H23 = test system: NCI-H23
SF-295 = test system: SF-295
SK-MEL-28 = test system: SK-MEL-28
SK-MEL-5 = test system: SK-MEL-5
SW-620 = test system: SW-620
UACC-62 = test system: UACC-62

CS(=O)(=O)OCC1CN(S(C)(=O)=O)c2cc(O)ccc21 (configuration not stated)
GI50 (A498): 2.64 µM (inactive)
GI50 (A549): 3.43 µM (inactive)
GI50 (ACHN): 3.18 µM (inactive)
GI50 (CAKI-1): 3.42 µM (inactive)
GI50 (CCRF-CEM): 1.01 µM (active)
GI50 (EKVX): 4.37 µM (inactive)
GI50 (HCC 2998): 1.89 µM (inactive)
GI50 (HCT-116): 2.77 µM (inactive)
GI50 (HL-60): 1.87 µM (inactive)
GI50 (HOP-62): 2.47 µM (inactive)
GI50 (K562): 2.43 µM (inactive)
GI50 (MDA-MB-231): 2.3 µM (inactive)
GI50 (MDA-MB-435): 2.02 µM (inactive)
GI50 (Malme-3M): 2.02 µM (inactive)
GI50 (NCI-H23): 1.72 µM (inactive)
GI50 (SF-295): 3.42 µM (inactive)
GI50 (SK-MEL-28): 3.47 µM (inactive)
GI50 (SK-MEL-5): 1.69 µM (inactive)
GI50 (SW-620): 2.84 µM (inactive)

O=C(NNS(=O)(=O)c1ccccc1)c1cccnc1
GI50 (A498): > 100 µM (inactive)
GI50 (A549): > 100 µM (inactive)
GI50 (ACHN): > 100 µM (inactive)
GI50 (CAKI-1): > 100 µM (inactive)
GI50 (CCRF-CEM): 59.7 µM (inactive)
GI50 (EKVX): > 100 µM (inactive)
GI50 (HCC 2998): > 100 µM (inactive)
GI50 (HCT-116): > 100 µM (inactive)
GI50 (HL-60): > 100 µM (inactive)
GI50 (HOP-62): > 100 µM (inactive)
GI50 (K562): > 100 µM (inactive)
GI50 (MDA-MB-231): > 100 µM (inactive)
GI50 (MDA-MB-435): > 100 µM (inactive)
GI50 (Malme-3M): > 100 µM (inactive)
GI50 (NCI-H23): > 100 µM (inactive)
GI50 (SF-295): > 100 µM (inactive)
GI50 (SK-MEL-28): > 100 µM (inactive)
GI50 (SK-MEL-5): > 100 µM (inactive)
GI50 (SW-620): > 100 µM (inactive)
GI50 (UACC-62): > 100 µM (inactive)

CC1=NN(c2cccc(Cl)c2)C2(C1)C(Cl)C(=O)N2c1nc2ccccc2s1 (configuration not stated)
GI50 (A498): 35.9 µM (inactive)
GI50 (A549): 25.6 µM (inactive)
GI50 (ACHN): 32.7 µM (inactive)
GI50 (CAKI-1): 33.1 µM (inactive)
GI50 (EKVX): 45.5 µM (inactive)
GI50 (HCC 2998): 55.1 µM (inactive)
GI50 (HCT-116): 19.2 µM (inactive)
GI50 (HL-60): 23.3 µM (inactive)
GI50 (HOP-62): 25.5 µM (inactive)
GI50 (K562): 16.2 µM (inactive)
GI50 (MDA-MB-231): 21.5 µM (inactive)
GI50 (MDA-MB-435): 25.6 µM (inactive)
GI50 (Malme-3M): 30.5 µM (inactive)
GI50 (NCI-H23): 19.7 µM (inactive)
GI50 (SF-295): 31.2 µM (inactive)
GI50 (SK-MEL-5): 19.4 µM (inactive)
GI50 (SW-620): 33.2 µM (inactive)
GI50 (UACC-62): 31.1 µM (inactive)

COc1ccc(-c2c(C#N)c(O)n(C3OC(CO)C(O)C(O)C3O)c(=S)c2C#N)cc1 (configuration not stated)
GI50 (A498): > 100 µM (inactive)
GI50 (A549): > 100 µM (inactive)
GI50 (ACHN): > 100 µM (inactive)
GI50 (CAKI-1): > 100 µM (inactive)
GI50 (CCRF-CEM): > 100 µM (inactive)
GI50 (HCC 2998): > 100 µM (inactive)
GI50 (HL-60): > 100 µM (inactive)
GI50 (HOP-62): > 100 µM (inactive)
GI50 (K562): > 100 µM (inactive)
GI50 (MDA-MB-231): > 100 µM (inactive)
GI50 (MDA-MB-435): > 100 µM (inactive)
GI50 (Malme-3M): > 100 µM (inactive)
GI50 (NCI-H23): > 100 µM (inactive)
GI50 (SF-295): > 100 µM (inactive)
GI50 (SK-MEL-28): > 100 µM (inactive)
GI50 (SK-MEL-5): > 100 µM (inactive)
GI50 (SW-620): > 100 µM (inactive)
GI50 (UACC-62): > 100 µM (inactive)

COC(=O)[C@@H](NS(=O)(=O)CC12CCC(CC1)C2(C)C)C(C)(C)C
GI50 (A498): > 100 µM (inactive)
GI50 (A549): > 100 µM (inactive)
GI50 (ACHN): > 100 µM (inactive)
GI50 (CAKI-1): > 100 µM (inactive)
GI50 (CCRF-CEM): > 100 µM (inactive)
GI50 (EKVX): > 100 µM (inactive)
GI50 (HCC 2998): > 100 µM (inactive)
GI50 (HCT-116): > 100 µM (inactive)
GI50 (HL-60): > 100 µM (inactive)
GI50 (K562): > 100 µM (inactive)
GI50 (MDA-MB-231): > 100 µM (inactive)
GI50 (MDA-MB-435): > 100 µM (inactive)
GI50 (Malme-3M): > 100 µM (inactive)
GI50 (NCI-H23): > 100 µM (inactive)
GI50 (SF-295): > 100 µM (inactive)
GI50 (SK-MEL-28): > 100 µM (inactive)
GI50 (SK-MEL-5): > 100 µM (inactive)
GI50 (SW-620): > 100 µM (inactive)
GI50 (UACC-62): > 100 µM (inactive)

C=C[C@H]1CN2CCc3c([nH]c4c([C@@H]5CCCN5C)c(O)ccc34)[C@@H]2C[C@@H]1C[C@H]1c2[nH]c3ccccc3c2CCN1C
GI50 (A498): 1.85 µM (inactive)
GI50 (A549): 1.5 µM (inactive)
GI50 (ACHN): 1.65 µM (inactive)
GI50 (CAKI-1): 1.71 µM (inactive)
GI50 (CCRF-CEM): 0.00427 µM (active)
GI50 (HCC 2998): 1.72 µM (inactive)
GI50 (HCT-116): 0.366 µM (active)
GI50 (HL-60): 0.524 µM (active)
GI50 (HOP-62): 1.35 µM (inactive)
GI50 (K562): 0.211 µM (active)
GI50 (MDA-MB-231): 1.76 µM (inactive)
GI50 (MDA-MB-435): 1.51 µM (inactive)
GI50 (Malme-3M): 1.85 µM (inactive)
GI50 (NCI-H23): 1.82 µM (inactive)
GI50 (SF-295): 1.57 µM (inactive)
GI50 (SK-MEL-28): 1.79 µM (inactive)
GI50 (SK-MEL-5): 1.57 µM (inactive)
GI50 (SW-620): 1.13 µM (inactive)
GI50 (UACC-62): 1.83 µM (inactive)

CC1=C(C)C2(C#N)C(=O)N3C(=NC(c4ccco4)NC3c3ccco3)C2(C#N)C(c2ccco2)N1 (configuration not stated)
GI50 (A498): > 100 µM (inactive)
GI50 (A549): > 100 µM (inactive)
GI50 (ACHN): > 100 µM (inactive)
GI50 (CAKI-1): > 100 µM (inactive)
GI50 (CCRF-CEM): > 100 µM (inactive)
GI50 (EKVX): > 100 µM (inactive)
GI50 (HCC 2998): > 100 µM (inactive)
GI50 (HCT-116): > 100 µM (inactive)
GI50 (HL-60): > 100 µM (inactive)
GI50 (HOP-62): > 100 µM (inactive)
GI50 (MDA-MB-231): > 100 µM (inactive)
GI50 (MDA-MB-435): > 100 µM (inactive)
GI50 (Malme-3M): > 100 µM (inactive)
GI50 (NCI-H23): > 100 µM (inactive)
GI50 (SF-295): > 100 µM (inactive)
GI50 (SK-MEL-28): > 100 µM (inactive)
GI50 (SK-MEL-5): > 100 µM (inactive)
GI50 (SW-620): > 100 µM (inactive)
GI50 (UACC-62): > 100 µM (inactive)
